Earlier results as cited in US7488755B2, “Derivatives of glycinergic R(+)-2-amino-3-hydroxypropanoic acid” (Prestwick Pharmaceuticals, Inc., priority 2002, dated 2009).

Assays:
schizophrenia patients = conditions: 2 g/day, double-blind clinical trial, also in patients with little response to conventional antipsychotics
schizophrenic patients = conditions: very high oral doses (>30 g/day)

Row | SMILES | efficacy in the treatment of schizophrenia (schizophrenia patients) | effect on negative symptoms in schizophrenic patients (schizophrenic patients)
1 | N[C@H](CO)C(=O)O [D-serine] | effective in the treatment of schizophrenia | –
2 | NCC(=O)O [glycine] | – | improvement in the negative symptoms
